Reference: publication PMC4832243, “Discovery of Potent VEGFR-2 Inhibitors based on Furopyrimidine and Thienopyrimidne Scaffolds as Cancer Targeting Agents” (Scientific Reports, 2016)

What was measured:
Format in all cases: cell-based
KM12 = experiment: NCI 60 cell line panel (SRB), KM12; details: Homo sapiens; KM12, Colon Cancer; single dose of 10 μM; read-out: Cell Growth Percent
OVCAR-3 = experiment: NCI 60 cell line panel (SRB), OVCAR-3; details: Homo sapiens; OVCAR-3, Ovarian Cancer; single dose of 10 μM; read-out: Cell Growth Percent
SNB-19 = experiment: NCI 60 cell line panel (SRB), SNB-19; details: Homo sapiens; SNB-19, CNS Cancer; single dose of 10 μM; read-out: Cell Growth Percent
OVCAR-4 = experiment: NCI 60 cell line panel (SRB), OVCAR-4; details: Homo sapiens; OVCAR-4, Ovarian Cancer; single dose of 10 μM; read-out: Cell Growth Percent
MOLT-4 = experiment: NCI 60 cell line panel (SRB), MOLT-4; details: Homo sapiens; MOLT-4, Leukemia; single dose of 10 μM; read-out: Cell Growth Percent
NCI-H322M = experiment: NCI 60 cell line panel (SRB), NCI-H322M; details: Homo sapiens, Non-Small Cell Lung Cancer, single dose of 10 μM, read-out: Cell Growth Percent
RPMI-8226 = experiment: NCI 60 cell line panel (SRB), RPMI-8226; details: Homo sapiens; RPMI-8226, Leukemia; single dose of 10 μM; read-out: Cell Growth Percent
RXF 393 = experiment: NCI 60 cell line panel (SRB), RXF 393; details: Homo sapiens; RXF 393, Renal Cancer; single dose of 10 μM; read-out: Cell Growth Percent
BT-549 = experiment: NCI 60 cell line panel (SRB), BT-549; details: Homo sapiens; BT-549, Breast Cancer; single dose of 10 μM; read-out: Cell Growth Percent
SF-268 = experiment: NCI 60 cell line panel (SRB), SF-268; details: Homo sapiens; SF-268, CNS Cancer; single dose of 10 μM; read-out: Cell Growth Percent
NCI-H522 = experiment: NCI 60 cell line panel (SRB), NCI-H522; details: Homo sapiens; NCI-H522, Non-Small Cell Lung Cancer; single dose of 10 μM; read-out: Cell Growth Percent
K-562 = experiment: NCI 60 cell line panel (SRB), K-562; details: Homo sapiens, K562; K-562, Leukemia; single dose of 10 μM; read-out: Cell Growth Percent
MDA-MB-468 = experiment: NCI 60 cell line panel (SRB), MDA-MB-468; details: Homo sapiens; MDA-MB-468, Breast Cancer; single dose of 10 μM; read-out: Cell Growth Percent
HOP-92 = experiment: NCI 60 cell line panel (SRB), HOP-92; details: Homo sapiens; HOP-92, Non-Small Cell Lung Cancer; single dose of 10 μM; read-out: Cell Growth Percent
LOX IMVI = experiment: NCI 60 cell line panel (SRB), LOX IMVI; details: Homo sapiens, Melanoma, single dose of 10 μM, read-out: Cell Growth Percent
HT29 = experiment: NCI 60 cell line panel (SRB), HT29; details: Homo sapiens, HT-29; HT29, Colon Cancer; single dose of 10 μM; read-out: Cell Growth Percent
HCT-116 = experiment: NCI 60 cell line panel (SRB), HCT-116; details: Homo sapiens; HCT-116, Colon Cancer; single dose of 10 μM; read-out: Cell Growth Percent
786-0 = experiment: NCI 60 cell line panel (SRB), 786-0; details: Homo sapiens; 786-0, Renal Cancer; single dose of 10 μM; read-out: Cell Growth Percent
A549/ATCC = experiment: NCI 60 cell line panel (SRB), A549/ATCC; details: Homo sapiens, Non-Small Cell Lung Cancer, single dose of 10 μM, read-out: Cell Growth Percent
MALME-3M = experiment: NCI 60 cell line panel (SRB), MALME-3M; details: Homo sapiens, Melanoma, single dose of 10 μM, read-out: Cell Growth Percent
A498 = experiment: NCI 60 cell line panel (SRB), A498; details: Homo sapiens; A498, Renal Cancer; single dose of 10 μM; read-out: Cell Growth Percent
PC-3 = experiment: NCI 60 cell line panel (SRB), PC-3; details: Homo sapiens; PC-3, Prostate Cancer; single dose of 10 μM; read-out: Cell Growth Percent
NCI-H460 = experiment: NCI 60 cell line panel (SRB), NCI-H460; details: Homo sapiens; NCI-H460, Non-Small Cell Lung Cancer; single dose of 10 μM; read-out: Cell Growth Percent
UO-31 = experiment: NCI 60 cell line panel (SRB), UO-31; details: Homo sapiens; UO-31, Renal Cancer; single dose of 10 μM; read-out: Cell Growth Percent
CCRF-CEM = experiment: NCI 60 cell line panel (SRB), CCRF-CEM; details: Homo sapiens, Leukemia, single dose of 10 μM, read-out: Cell Growth Percent
SK-MEL-5 = experiment: NCI 60 cell line panel (SRB), SK-MEL-5; details: Homo sapiens; SK-MEL-5, Melanoma; single dose of 10 μM; read-out: Cell Growth Percent
OVCAR-5 = experiment: NCI 60 cell line panel (SRB), OVCAR-5; details: Homo sapiens; OVCAR-5, Ovarian Cancer; single dose of 10 μM; read-out: Cell Growth Percent
SK-MEL-28 = experiment: NCI 60 cell line panel (SRB), SK-MEL-28; details: Homo sapiens; SK-MEL-28, Melanoma; single dose of 10 μM; read-out: Cell Growth Percent
DU-145 = experiment: NCI 60 cell line panel (SRB), DU-145; details: Homo sapiens; DU-145, Prostate Cancer; single dose of 10 μM; read-out: Cell Growth Percent
IGROV1 = experiment: NCI 60 cell line panel (SRB), IGROV1; details: Homo sapiens, IGROV-1; IGROV1, Ovarian Cancer; single dose of 10 μM; read-out: Cell Growth Percent
SW-620 = experiment: NCI 60 cell line panel (SRB), SW-620; details: Homo sapiens; SW-620, Colon Cancer; single dose of 10 μM; read-out: Cell Growth Percent
T-47D = experiment: NCI 60 cell line panel (SRB), T-47D; details: Homo sapiens, T47D, Breast Cancer, single dose of 10 μM, read-out: Cell Growth Percent
NCI-H23 = experiment: NCI 60 cell line panel (SRB), NCI-H23; details: Homo sapiens; NCI-H23, Non-Small Cell Lung Cancer; single dose of 10 μM; read-out: Cell Growth Percent
CAKI-1 = experiment: NCI 60 cell line panel (SRB), CAKI-1; details: Homo sapiens; CAKI-1, Renal Cancer; single dose of 10 μM; read-out: Cell Growth Percent

Row | Structure (SMILES) | activity at 10 µM (KM12) | activity at 10 µM (OVCAR-3) | activity at 10 µM (SNB-19) | activity at 10 µM (OVCAR-4) | activity at 10 µM (MOLT-4) | activity at 10 µM (NCI-H322M) | activity at 10 µM (RPMI-8226) | activity at 10 µM (RXF 393) | activity at 10 µM (BT-549) | activity at 10 µM (SF-268) | activity at 10 µM (NCI-H522) | activity at 10 µM (K-562) | activity at 10 µM (MDA-MB-468) | activity at 10 µM (HOP-92) | activity at 10 µM (LOX IMVI) | activity at 10 µM (HT29) | activity at 10 µM (HCT-116) | activity at 10 µM (786-0) | activity at 10 µM (A549/ATCC) | activity at 10 µM (MALME-3M) | other results
1 | COc1cccc(NC(=O)Nc2ccc(Oc3ncnc4sc5c(c34)CCCC5)cc2)c1 [Compound 21c] | 27.5% | 68.3% | 70.2% | 56.6% | 46.9% | 95.8% | 46.7% | 74% | 88.5% | 72% | 21% | 64.6% | 69.3% | 79% | 61.5% | 54.8% | 55.8% | 97.6% | 61.2% | 88.5% | activity at 10 µM (A498): 67.8%; activity at 10 µM (PC-3): 45%; activity at 10 µM (NCI-H460): 65.7%; activity at 10 µM (UO-31): 52.5%; activity at 10 µM (CCRF-CEM): 64.4%; activity at 10 µM (SK-MEL-5): 63.6%; activity at 10 µM (OVCAR-5): 105%; activity at 10 µM (SK-MEL-28): 83.7%; activity at 10 µM (DU-145): 82.4%; activity at 10 µM (IGROV1): 88.7%; activity at 10 µM (SW-620): 96.3%; activity at 10 µM (T-47D): 41.7%; activity at 10 µM (NCI-H23): 67.7%; activity at 10 µM (CAKI-1): 80.8%
2 | O=C(Nc1ccc(Cl)cc1)Nc1ccc(Oc2ncnc3sc4c(c23)CCCC4)cc1 [Compound 21d] | 69.1% | 85.8% | 79.5% | 93.6% | 72% | 103% | 68.8% | 87.7% | 112% | 87% | 47.5% | 84.2% | 103% | 102% | 84.8% | 86.4% | 82.6% | 108% | 66.6% | 98.9% | activity at 10 µM (A498): 70.1%; activity at 10 µM (PC-3): 57.6%; activity at 10 µM (NCI-H460): 82.1%; activity at 10 µM (UO-31): 71.2%; activity at 10 µM (CCRF-CEM): 77.9%; activity at 10 µM (SK-MEL-5): 78.4%; activity at 10 µM (OVCAR-5): 113%; activity at 10 µM (SK-MEL-28): 92.6%; activity at 10 µM (DU-145): 91.9%; activity at 10 µM (IGROV1): 108%; activity at 10 µM (SW-620): 97.7%; activity at 10 µM (T-47D): 73.3%; activity at 10 µM (NCI-H23): 87.4%; activity at 10 µM (CAKI-1): 95.4%
